One series concerns HL-60. The series is described as follows: ATP ViaLight cytotoxicity assay, HL-60. Type of series: cell-based. Conditions: Homo sapiens, HL-60, 72 h. Here is the method: (§1) HL-60, CTS, and K-562 are leukaemia cell lines, which were obtained from the American Type Culture Collection (ATCC), Middlesex. HL-60 cell line is of acute promyelocytic leukaemia; CTS cell line is of acute myeloid leukaemia; and K-562 cell line is of chronic myeloid leukaemia.
(§2) HL-60, CTS, and K-562 cell lines were cultured in RPMI-1640 medium (Sigma Aldrich, UK), which was supplemented with 10% Fetal Bovine Serum (FBS) (PAA Laboratories), 1% amphotericin B (5.5 ml) and 1% penicillin/streptomycin (5.5 ml) (PAA Laboratories) and grown in flasks at 37° C. incubator with 5% CO2.
(§3) For inhibitor studies the cell lines were treated in the same way as described above but before treatment with drugs, a number of inhibitors were added: • 1) Nitrobenzylthioinosine (NBTI) (Sigma-Aldrich, St. Louis, Mo.) inhibits hENT1. • 2) A-134974 dihydrochloride hydrate (Sigma-Aldrich, St. Louis, Mo.) inhibits adenosine kinase. • 3) EHNA hydrochloride (Sigma-Aldrich, St. Louis, Mo.) inhibits adenosine deaminase.
(§4) ATP ViaLight™ plus assay kit (Lonza, USA: Product No. LT07-121) was used for treating the cells in luminescence compatible 96 well plates (initial concentration of cells was 1×10^4 cells/well) with 8-Cl-A and ProTides, concentrations: 0, 0.1, 0.5, 1, 5 and 10 μM were added to cells, respectively, followed by incubation for 72 hours at 37° C. incubator with 5% CO2. For inhibitor studies, […] concentration of each inhibitor was added before drugs and incubated for 72 hours at 37° C. with 5% CO2.
(§5) After incubation, 50 μl of cell lysis reagent was added to the 96 well plates to release the intracellular ATP, followed by 100 μl of ATP monitoring reagent (AMR). The luminescent values of each well were determined using FLUOstar OPTIMA microplate reader (BMG Labtech) which converted ATP into light by using luciferase enzyme.
(§6) The dose-response curves of cytotoxicity of the drugs was determined using non-linear regression analysis of percentage cell viability versus concentration and EC50 values were obtained. The intracellular assay was conducted in five repeats for each condition. Intracellular assay was determined using paired T test (two-tailed) analysis of 8-ChloroATP/ATP concentration and p values were obtained. Drug stability in human plasma was determined using two-way ANOVA analysis. For all the analysis, Prism Software program (GraphPad Software) was used.

The test system of another series is K-562. The series is described as follows: ATP ViaLight cytotoxicity assay, K-562. Type of series: cell-based. Particulars: Homo sapiens, K562, 72 h. Here is the method: as §1, §2, §3, §4, §5, §6
Series [1] is described as follows: Drug stability in human plasma with or without EHNA. Type of series: in vitro ADME. Particulars: for plasma concentration compared with the other compounds: human plasma, with or without EHNA. How it is done:
10 ml of human plasma sample (Sera laboratories, UK) was treated with 1 μM of EHNA. 1 ml from this was taken along with 1 μl of 20 µM concentration of each drug (8-Cl-A, compound A, compound B and compound D) which was added to new tubes and incubated for 2 hours at 37° C. with 5% CO2. After incubation, 100 μl of each sample was taken and 300 μl of 100% methanol was added and left on ice for 30 minutes. After 30 minutes, the mixture was centrifuged (14000 rpm, 4° C., 10 minutes), the supernatant was transferred to new tubes and evaporated under speed vac. Then the dried pellet was reconstituted in 100 μl of 10% Acetonitrile and transferred to LC-MS vials for injection in to the UPLC-MS/MS system.
as §6

Another series concerns Lovo. The series is described as follows: MTT cytotoxicity assay, Lovo. The class given is cell-based. Conditions: Homo sapiens, 96 h compound exposure, read-out: absolute IC50, Lovo. From the text:
Lovo: cell line derived from a metastatic site in a patient with colon cancer MCF7: human oestrogen sensitive mammary epithelial cell line PC3: human prostate cancer cell line A549: cancerous lung tissue derived cells L1210: lymphoblast cell line derived from a mouse with lymphocytic leukaemia FM3A: mammary carcinoma murine cells CEM: human T-lymphoblasts, derived from the blood of a patient with acute lymphoblastic leukaemia HeLa: epithelial cells from a patient with cervical adenocarcinoma
Anti-tumour evaluation in MCF7, LoVo, A549 and PC3 cell lines was performed by MTT assay. Compounds were prepared as 0.1-100 mM stock solutions dissolved in DMSO and stored at −20° C. Cells were seeded into 96-well microtitre plates at a density of 5×10^3 cells per well and allowed 24 hours to adhere. Decimal compound dilutions were prepared in medium immediately prior to each assay (final concentration 0.1-100 μM). Experimental medium was DMEM+10% FCS (PC3 and Lovo) or RPMI+10% heat inactivated FCS (A549 and MCF7). Following 96 h compound exposure at 37° C., 5% CO2, MTT reagent (Sigma Aldrich) was added to each well (final concentration 0.5 mg/ml). Incubation at 37° C. for 4 h allowed reduction of MTT by viable cells to an insoluble formazan product. MTT was removed and formazan solubilised by addition of 10% Triton X-100 in PBS. Absorbance was read on a Tecan Sunrise spectrophotometer at 540 nm as a measure of cell viability; thus inhibition relative to control was determined (IC50).
On the technique in general: Tetrazolium dyes change colour on reduction, which living cells bring about.

[2] abbreviates: with A-134974 (adenosine kinase inhibitor).

What is called EC50 is the midpoint of the concentration-response curve. The term IC50 denotes the concentration that gives 50% inhibition.

In the case of `C[C@H](NP(=O)(OC[C@H]1O[C@@H](n2c(Cl)nc3c(N)ncnc32)C(O)C1O)Oc1cccc2ccccc12)C(=O)OCc1ccccc1` (stereo partly drawn) [Compound D, (2S)-Benzyl 2-(((((2R,3S,4R,5R)-5-(6-amino-8-chloro-9H-purin-9-yl)-3,4-dihydroxy-tetrahydrofuran-2-yl)methoxynaphthalene-1-yloxy)phosphoryl)amino)propanoate], the concentration for a half-maximal effect (EC50) with HL-60 (Control (no inhibitor)) came to 0.33 µM; with HL-60 (setting [2]), 21.3 µM; in the series on HL-60 (with NBTI (hENT1 inhibitor)) it was 1.23 µM; with K-562 (Control (no inhibitor)), 6.63 µM; in the series with K-562 (setting [2]), 19.7 µM; with K-562 (with NBTI (hENT1 inhibitor)), 1.73 µM. For the same compound, the “plasma concentration compared with the other compounds” value in series [1] is “highest plasma concentration”.

For the compound `Nc1ncnc2c1nc(Cl)n2[C@@H]1O[C@H](CO)[C@@H](O)[C@H]1O` [8-chloroadenosine, 8-Chloroadenosine, reference compound], in the series with Lovo, the IC50 is 0.1 to 5 µM. Further, the EC50 in the series on HL-60 (Control (no inhibitor)) stood at 0.64 µM; with HL-60 (with NBTI (hENT1 inhibitor)), 0.96 µM; with K-562 (Control (no inhibitor)), 0.64 µM; in the series with K-562 (with NBTI (hENT1 inhibitor)) it was 4.69 µM. Besides, the “fold increase in human plasma concentration when adenosine deaminase was inhibited by EHNA” value in series [1] (EHNA versus control) was around 3 fold.

Turning to `CC(C)C[C@H](NP(=O)(OC[C@H]1O[C@@H](n2c(Cl)nc3c(N)ncnc32)C(O)C1O)Oc1ccccc1)C(=O)OCc1ccccc1` (stereo partly drawn) [V, 5′-([(Benzyloxy-L-leucin-N-yl)-phenyl]-phosphatyl) 8-chloroadenosine], in the series with Lovo, the half-maximal inhibitory concentration (IC50) lay within 0.1 to 5 µM.

On to `C[C@H](NP(=O)(OC[C@H]1O[C@@H](n2c(Cl)nc3c(N)ncnc32)[C@H](O)[C@@H]1O)Oc1ccccc1)C(=O)OCc1ccccc1` (mixture of isomers) [C, (2S)-Benzyl 2-(((((2R,3S,4R,5R)-5-(6-amino-8-chloro-9H-purin-9-yl)-3,4-dihydroxy-tetrahydrofuran-2-yl)methoxy)(phenoxy)phosphoryl)amino)propanoate], for which the IC50 in the series on Lovo lay in the range of 0.1 to 5 µM.

In the case of `Nc1ncnc2c1nc(Cl)n2[C@@H]1O[C@H](COP(=O)(NCC(=O)OCc2ccccc2)Oc2ccccc2)[C@@H](O)[C@H]1O` (mixture of isomers) [Compound B, Benzyl 2-(((((2R,3S,4R,5R)-5-(6-amino-8-chloro-9H-purin-9-yl)-3,4-dihydroxytetra-hydrofuran-2-yl)methoxy)(phenoxy)phosphoryl)amino)acetate], the IC50 in the series on Lovo lay in the range of 0.1 to 5 µM. The EC50 with HL-60 (Control (no inhibitor)) was determined as 0.49 µM; in the series on HL-60 (setting [2]), 14.6 µM; in the series on HL-60 (with NBTI (hENT1 inhibitor)), 8.76 µM; in the series with K-562 (Control (no inhibitor)), 2.86 µM; in the series on K-562 (with NBTI (hENT1 inhibitor)), 12.8 µM. The “plasma concentration compared with the other compounds” value in series [1] is given as “low plasma concentration”.

On to `Nc1ncnc2c1nc(Cl)n2[C@@H]1O[C@H](COP(=O)(NCC(=O)OC2CCCCC2)Oc2ccccc2)[C@@H](O)[C@H]1O` (mixture of isomers) [Compound A, Cyclohexyl 2-(((((2R,3S,4R,5R)-5-(6-amino-8-chloro-9H-purin-9-yl)-3,4-dihydroxy-tetrahydrofuran-2-yl)methoxy)(phenoxy)phosphoryl)amino)acetate], for which the IC50 in the series on Lovo fell in the range of 0.1 to 5 µM. Further, the response with HL-60 (Control (no inhibitor)) was half-maximal at 12.4 µM (EC50).

Values taken from patent US20190375778A1, “ADENOSINE DERIVATIVES FOR USE IN THE TREATMENT OF CANCER” (NuCana plc, priority 2016, published 2019).
